Series [1] addresses T1, hCB2R (Homo sapiens, UniProt P34972). Nature of the series: [35S]-GTPγS binding assay, CB2R-containing membranes. On the technique in general: Binding of GTPγS marks nucleotide exchange on a G protein.
In series [2] the test system is α1-acid glycoprotein (AGP). Nature of the series: SPR. (In general: Surface plasmon resonance follows binding to a sensor surface in real time, without labels.)
In series [3] the target is human serum albumin (HSA) (Homo sapiens, UniProt P02768). Description: SPR.
Sequence of human serum albumin (HSA) (P02768 25-609): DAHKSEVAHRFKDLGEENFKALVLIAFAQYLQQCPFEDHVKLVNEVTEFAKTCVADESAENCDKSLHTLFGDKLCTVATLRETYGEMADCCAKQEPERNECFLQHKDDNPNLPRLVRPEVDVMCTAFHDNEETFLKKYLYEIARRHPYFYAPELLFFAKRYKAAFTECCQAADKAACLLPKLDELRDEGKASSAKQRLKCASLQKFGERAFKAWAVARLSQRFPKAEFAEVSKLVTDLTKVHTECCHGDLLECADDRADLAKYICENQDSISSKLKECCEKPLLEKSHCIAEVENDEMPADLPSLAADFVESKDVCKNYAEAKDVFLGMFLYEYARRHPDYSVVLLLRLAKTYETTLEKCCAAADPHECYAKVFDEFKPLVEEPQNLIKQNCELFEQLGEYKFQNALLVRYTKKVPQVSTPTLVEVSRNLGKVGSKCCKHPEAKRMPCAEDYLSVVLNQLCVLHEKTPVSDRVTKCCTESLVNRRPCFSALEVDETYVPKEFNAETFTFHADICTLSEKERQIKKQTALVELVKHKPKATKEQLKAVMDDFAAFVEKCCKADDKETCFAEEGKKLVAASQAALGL
For series [4], the target named is T1, hCB2R. Nature of the series: cAMP determination assay, forskolin-stimulated HEK293-CB2R cells. The note with it: for effect on forskolin-stimulated cAMP accumulation, preliminary screening: 200 nM and 1 μM; for effect on forskolin-stimulated cAMP accumulation, preliminary screening / CB2 functional profile in cAMP assay: HEK293-CB2R cells; for CB2R antagonism of CP55,940 effect in cAMP assay: CP55,940 100 nM and 1 μM, compound at 200 nM (31 also at 1 μM). For orientation: Changes in cAMP serve as a functional read-out for many G protein-coupled receptors.

The next series addresses human CB1 receptor (Homo sapiens, UniProt P21554). Format: biochemical.
Series [5] has as its target human CB2 (hCB2) cannabinoid receptor (Homo sapiens, UniProt P34972). Description: [3H]-CP55,940 radioligand competition binding, hCB2 membranes.
The target in series [6] is human CB1 (hCB1) cannabinoid receptor (Homo sapiens, UniProt P21554). Description: biochemical. Format: binding.
Sequence of human CB1 (hCB1) cannabinoid receptor (P21554 whole entry): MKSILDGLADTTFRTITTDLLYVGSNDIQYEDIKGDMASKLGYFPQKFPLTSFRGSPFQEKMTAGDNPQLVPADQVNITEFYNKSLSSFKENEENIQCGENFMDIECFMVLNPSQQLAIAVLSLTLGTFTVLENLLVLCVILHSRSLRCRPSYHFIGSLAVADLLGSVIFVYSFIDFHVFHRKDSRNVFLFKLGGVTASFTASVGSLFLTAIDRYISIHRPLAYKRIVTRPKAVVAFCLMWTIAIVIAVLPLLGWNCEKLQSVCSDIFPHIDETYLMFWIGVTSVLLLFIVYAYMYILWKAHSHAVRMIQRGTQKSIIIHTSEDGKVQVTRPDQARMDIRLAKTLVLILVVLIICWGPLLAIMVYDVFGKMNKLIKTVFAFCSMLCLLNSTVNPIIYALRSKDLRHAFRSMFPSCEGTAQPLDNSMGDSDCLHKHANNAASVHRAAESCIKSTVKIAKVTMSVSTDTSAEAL

The structures appear in SMILES notation.

T1 sequence (P34972 whole entry): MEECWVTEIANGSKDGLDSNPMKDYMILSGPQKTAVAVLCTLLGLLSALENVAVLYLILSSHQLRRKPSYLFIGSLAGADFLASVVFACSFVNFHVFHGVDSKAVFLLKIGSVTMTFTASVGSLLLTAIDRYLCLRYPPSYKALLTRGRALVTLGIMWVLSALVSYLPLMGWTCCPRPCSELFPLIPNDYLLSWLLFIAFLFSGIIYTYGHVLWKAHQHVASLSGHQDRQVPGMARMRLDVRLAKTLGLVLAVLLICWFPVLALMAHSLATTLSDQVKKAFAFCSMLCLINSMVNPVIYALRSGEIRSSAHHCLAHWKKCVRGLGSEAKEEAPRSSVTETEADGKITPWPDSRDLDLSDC
Sequence of human CB2 (hCB2) cannabinoid receptor (P34972 whole entry): as above
Sequence of human CB1 receptor (P21554 whole entry): as the sequence (P21554 whole entry) above

As to `CCCCCCC(C)(C)c1cc(OC)c2c(c1)OC(C)(C)c1cnoc1-2` [Compound 43, 7-(1,1-Dimethylheptyl)-9-methoxy-4,4-dimethyl-4H-chromeno-[3,4-d]isoxazole], on hCB2R [1], the IC50 was 38.6 ± 6.7 nM. For the same molecule, in series [2], the AGP binding level result is “medium”. Further, in series [3], the HSA binding level result was “medium”.
Turning to `CCCCCCC(C)(C)c1cc(OC)c2c(c1)OC(C)(C)c1cn(C)nc1-2` [Compound 16, 7-(1,1-Dimethylheptyl)-2,4-dihydro-9-methox y-2,4,4-trimethylchromeno[4,3-c]pyrazole], on hCB2R [4], the “effect on forskolin-stimulated cAMP accumulation, preliminary screening” value (from here on “effect … preliminary screening”) is reported as “no effect” and the “CB2R antagonism of CP55,940 effect in cAMP assay” value (shortened to “CB2R antagonism”) is given as “able to antagonize the effect of the cannabinoid agonist CP55,940”.
As for `C=C(C)[C@@H]1CCC(C)=C[C@H]1c1c(O)cc(CCCCC)cc1O` [CBD, cannabidiol, reference compound], the AGP binding level entry in series [2] is reported as “very high”. Also, in series [3], the HSA binding level entry is reported as “high”.
In the case of `CCCCCCC(C)(C)c1cc(OCCO)c2c(c1)OC(C)(C)c1cn(CC)nc1-2` [Compound 36, 7-(1,1-Dimethylheptyl)-2-ethyl-2,4-dihydro-9-(2-hydroxyethoxy)-4,4-dimethylchromeno[4,3-c]pyrazole], the AGP binding level entry in series [2] is “very high”. Moreover, the HSA binding level entry in series [3] is listed as “very high”.
For the molecule `CCCCC/C=C\C/C=C\C/C=C\C/C=C\CCCC(=O)OC(CO)CO` [Compound 2-AG, 2-arachidonoylglycerol, reference compound], the AGP binding level entry in series [2] is on record as “very high”. Besides, in series [3], the HSA binding level entry is recorded as “high”.
Regarding `CCCCCCC(C)(C)c1cc(OCCCO)c2c(c1)OC(C)(C)c1cn(CC)nc1-2` [Compound 31, 7-(1,1-Dimethylheptyl)-2-ethyl-2,4-dihydro-9-(3-hydroxypropoxy)-4,4-dimethylchromeno-[4,3-c]pyrazole], on hCB2R [4], the “effect … preliminary screening” value is “no effect” and the “CB2R antagonism” value was “behaved as the CP55,940 antagonist only at the highest concentration”.
Consider `CCCCCCC(C)(C)c1ccc([C@@H]2C[C@H](O)CC[C@H]2CCCO)c(O)c1` [CP55,940, reference compound], for which the HSA binding level result in series [3] is “high”.
For `CCCCCCC(C)(C)c1cc(OCCCO)c2c(c1)OC(C)(C)c1cnoc1-2` [Compound 44, 7-(1,1-Dimethylheptyl)-9-(3-hydroxypropoxy)-4,4-dimethyl-4H-chromeno[3,4-d]isoxazole], the IC50 at hCB2R [1] came out at 540 ± 208 nM.
At hCB2R [1], `CCCCCCC(C)(C)c1cc(O)c2c(c1)OC(C)(C)c1cnoc1-2` [Compound 42, 7-(1,1-Dimethylheptyl)-4,4-dimethyl-4H-chromeno[3,4-d]-isoxazol-9-ol] displayed an IC50 of 50.2 ± 24.9 nM. Also, at human CB1 receptor, the “fold more potent than 10b and 22 in [35S]-GTPγS binding (CB1R)” value is reported as “at least 10 fold”. In addition, in series [2], the AGP binding level entry is listed as “very high”. For the same molecule, in series [3], the HSA binding level entry is “very high”.
Turning to `CCCCCCC(C)(C)c1cc(OC)c2c(c1)OC(C)(C)c1cnn(CC)c1-2` [Compound 17, 7-(1,1-Dimethylheptyl)-1-ethyl-1,4-dihydro-9-methoxy-4,4-dimethylchromeno[4,3-c]pyrazole], at hCB2R [4], the “effect … preliminary screening” value is “low to high inhibition” and the “CB2 functional profile in cAMP assay” value is given as “partial or weak agonists”.
With `CCCCCCC(C)(C)c1cc2c(c3c1CCCO3)-c1c(cnn1CC)C(C)(C)O2` [Compound 40, 7-(1,1-Dimethylheptyl)-1-ethyl-1,4,9,10-tetrahydro-4,4-dimethyl-8H-pyrano[2′,3′:5,6]chrome-no[4,3-c]pyrazole], the AGP binding level entry in series [2] is “medium”. The HSA binding level entry in series [3] is reported as “medium”.
`CCCCCCC(C)(C)c1cc(OC)c2c(c1)OC(C)(C)c1cn(CC)nc1-2` [Compound 18, 7-(1,1-Dimethylheptyl)-2-ethyl-2,4-dihydro-9-methoxy-4,4-dimethylchromeno[4,3-c]pyrazole]: the AGP binding level entry in series [2] is reported as “very high”. Also, in series [3], the HSA binding level entry is reported as “very high”. At hCB2R [4], the “effect … preliminary screening” value is “low to high inhibition” and the “CB2 functional profile in cAMP assay” value is “partial or weak agonists”.
For `CCCCCCC(C)(C)c1cc(OCCBr)c2c(c1)OC(C)(C)c1cnn(CC)c1-2` [Compound 39, 9-(2-Bromoethoxy)-7-(1,1-dimethylheptyl)-1-ethyl-1,4-dihydro-4,4-dimethylchromeno[4,3-c]pyrazole], the Ki in series [5] stood at 78.7 ± 11.3 nM. Further, in series [2], the AGP binding level result is “medium”. Besides, in series [3], the HSA binding level result was “medium”. Also, at hCB2R [4], the “effect … preliminary screening” value is given as “low to high inhibition” and the “CB2 functional profile in cAMP assay” value was “partial or weak agonists”. Also, in series [6], the Ki was found to be 1330 ± 320 nM.
Regarding `CCCCCCC(C)(C)c1cc(OCCCBr)c2c(c1)OC(C)(C)c1cn(C)nc1-2` [Compound 37, 9-(3-Bromopropoxy)-7-(1,1-dimethylheptyl)-2,4-dihydro-2,4,4-trimethylchromeno[4,3-c]py-razole], the AGP binding level result in series [2] is “very high”. Besides, the HSA binding level result in series [3] is on record as “very high”. Moreover, on hCB2R [4], the “effect … preliminary screening” value is “low to high inhibition” and the “CB2 functional profile in cAMP assay” value was “partial or weak agonists”.
With `CCCCCCC(C)(C)c1cc(OCc2ccccc2)c2c(c1)OC(C)(C)c1cn[nH]c1-2` [Compound 22, 9-Benzyloxy-2,4-dihydro-7 - (1,1-di m ethylheptyl)-4,4 - dimethylchromeno[4,3-c]pyrazole], at hCB2R [4], the “effect … preliminary screening” value was “low to high inhibition” and the “CB2 functional profile in cAMP assay” value is “partial or weak agonists”.
Turning to `CCCCCCC(C)(C)c1cc(OCCO)c2c(c1)OC(C)(C)c1cn[nH]c1-2` [Compound 34, 7-(1,1-Dimethylheptyl)-2,4-dihydro-9-(2-hydroxyethoxy)-4,4-dimethylchromeno[4,3-c]pyra-zole], the IC50 at hCB2R [1] amounted to 95.1 ± 7.2 nM. For the same molecule, at hCB2R [4], the “effect … preliminary screening” value is on record as “low to high inhibition” and the “CB2 functional profile in cAMP assay” value is “potent CB2 agonists”.
For the molecule `CCCCCCC(C)(C)c1cc(OCCCO)c2c(c1)OC(C)(C)c1cn[nH]c1-2` [Compound 28, 7-(1,1-Dimethylheptyl)-2,4-dihydro-9-(3-hydroxypropoxy)-4,4-dimethylchromeno[4,3-c]pyrazole], the AGP binding level entry in series [2] is on record as “very high”. Also, the HSA binding level entry in series [3] is “very high”. Further, on hCB2R [4], the “effect … preliminary screening” value was “low to high inhibition” and the “CB2 functional profile in cAMP assay” value is “partial or weak agonists”.
Take `CCCCCCC(C)(C)c1cc(OCCO)c2c(c1)OC(C)(C)c1cn(C)nc1-2` [Compound 35, 7-(1,1-Dimethylheptyl)-2,4-dihydro-9-(2-hydroxyethoxy)-2,4,4-trimethylchromeno[4,3-c]py-razole]: at hCB2R [4], the “effect … preliminary screening” value was “no effect” and the “CB2R antagonism” value is “able to antagonize the effect of the cannabinoid agonist CP55,940”.
Take `CCCCC/C=C\C/C=C\C/C=C\C/C=C\CCCC(=O)NCCO` [AEA, anandamide, reference compound]: the AGP binding level entry in series [2] is reported as “very high”.

By IC50 is commonly meant the concentration that inhibits the measured activity by half. In general, Ki refers to a dissociation constant, usually derived from enzyme kinetics or from competition with a known ligand. Read a low Ki as tighter binding.

For the origin of these results see paper PMC5321205 (Journal of medicinal chemistry, 2016).
